Several values for one entry are separate records, joined by “and”; a condition that tells them apart may be missing. Identical values can stand only once. Inconclusive results and toxic doses are left out. The calls were made as follows: active = survival T/C of 150% or more; inactive = T/C below 125% in these data.
Tested on: CD2F1 mice, L1210 leukemia ip, survival T/C
Assay: NCI In Vivo Anticancer Drug Screen. Data for tumor model L1210 Leukemia (intraperitoneal) in CD2F1 (CDF1) mice
Details: endpoint: mean survival time, higher = longer survival
How it was run: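 Mice carrying a transplanted tumor received test compound or vehicle alone. The value is the measurement in the treated group divided by that in the vehicle-treated control group.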

[1] = dose: 100.0 mg/kg/injection, schedule: Q01DX009 (ip), vehicle: saline with Tween-80
[2] = dose: 200.0 mg/kg/injection, schedule: Q01DX009 (ip), vehicle: saline with Tween-80
[3] = dose: 12.5 mg/kg/injection, schedule: Q04DX003 (ip), vehicle: saline with Tween-80
[4] = dose: 25.0 mg/kg/injection, schedule: Q01DX009 (ip), vehicle: Klucel (hydroxypropylcellulose) (HPC)
[5] = dose: 50.0 mg/kg/injection, schedule: Q01DX009 (ip), vehicle: Klucel (hydroxypropylcellulose) (HPC)
[6] = dose: 100.0 mg/kg/injection, schedule: Q01DX009 (ip), vehicle: Klucel (hydroxypropylcellulose) (HPC)
[7] = dose: 100.0 mg/kg/injection, schedule: Q01DX001 (ip), vehicle: saline with Tween-80

Measured: T/C

CC(O)C(=O)NN (stereo not drawn)
inactive: [1] 112 % of control | [2] 116 % of control | dose: 400.0 mg/kg/injection, schedule: Q01DX009 (ip), vehicle: saline with Tween-80 93 % of control

CCOC(=O)C1(Cc2ccccc2)SCCCS1
inactive: dose: 50.0 mg/kg/injection, schedule: Q04DX002 (ip), vehicle: saline with Tween-80 105 % of control | dose: 100.0 mg/kg/injection, schedule: Q04DX002 (ip), vehicle: saline with Tween-80 105 % of control | dose: 200.0 mg/kg/injection, schedule: Q04DX002 (ip), vehicle: saline with Tween-80 105 % of control

CCCCOP(=O)(OCCCC)[O][Pb]([CH2]C)([CH2]C)[CH2]C
inactive: dose: 6.25 mg/kg/injection, schedule: Q04DX003 (ip), vehicle: saline with Tween-80 97 % of control | [3] 92 % of control

C=C(NC(=O)C(=C)NC(=O)c1csc(C2=NC3c4csc(n4)C4NC(=O)c5csc(n5)C(C(C)(O)C(C)O)NC(=O)C5CSC(=N5)/C(=C/C)NC(=O)C(C(C)O)NC(=O)c5csc(n5)C3(CC2)NC(=O)C(C)NC(=O)C(=C)NC(=O)C(C)NC(=O)C(C(C)CC)NC2C=Cc3c(C(C)O)cc(nc3C2O)C(=O)OC4C)n1)C(N)=O (stereo not drawn)
inactive: dose: 118.0 mg/kg/injection, schedule: Q04DX003 (ip), vehicle: saline 117 % of control

Cc1ccc(S(=O)(=O)N/N=C/c2ccccc2Cl)cc1
inactive: dose: 12.5 mg/kg/injection, schedule: Q01DX009 (ip), vehicle: Klucel (hydroxypropylcellulose) (HPC) 93 % of control | [4] 91 % of control | [5] 90 % of control | [6] 98 % of control

O=S(=O)(F)/C=C/c1ccccc1
inactive: dose: 100.0 mg/kg/injection, schedule: Q04DX003 (ip), vehicle: saline with Tween-80 88 % of control | dose: 200.0 mg/kg/injection, schedule: Q04DX003 (ip), vehicle: saline with Tween-80 97 % of control

NCc1cccc(-c2nc3ncnc(N)c3[nH]2)c1
inactive: dose: 50.0 mg/kg/injection, schedule: Q01DX009 (ip), vehicle: saline 101 % of control | dose: 100.0 mg/kg/injection, schedule: Q01DX009 (ip), vehicle: saline 105 % of control

COC(=O)c1ccccc1N1C(=O)C=CC1=O
inactive: [3] 98 % of control | dose: 25.0 mg/kg/injection, schedule: Q04DX003 (ip), vehicle: saline with Tween-80 89 % of control

CCCCCCCCCCCCCCCC(=O)N(CCC#N)C(C)(C)CCC(C)(C)N(CCC#N)C(=O)CCCCCCCCCCCCCCC
inactive: [4] 95 % of control | [5] 95 % of control | [6] 88 % of control | dose: 200.0 mg/kg/injection, schedule: Q01DX009 (ip), vehicle: Klucel (hydroxypropylcellulose) (HPC) 88 % of control

Nc1nc(N)c(-c2ccc(Cl)cc2)c(CBr)n1
inactive: dose: 6.25 mg/kg/injection, schedule: Q01DX001 (ip), vehicle: saline 95 % of control | dose: 12.5 mg/kg/injection, schedule: Q01DX001 (ip), vehicle: saline 98 % of control | dose: 25.0 mg/kg/injection, schedule: Q01DX001 (ip), vehicle: saline with Tween-80 106 % of control | dose: 25.0 mg/kg/injection, schedule: Q01DX001 (ip), vehicle: saline 98 % of control | dose: 50.0 mg/kg/injection, schedule: Q01DX001 (ip), vehicle: saline with Tween-80 95 % of control | [7] 102 % of control and 110 % of control

[NH-]S(=O)(=O)O.[NH-]S(=O)(=O)O.[NH2-].[NH2-].[Pt+4]
inactive: dose: 10.0 mg/kg/injection, schedule: Q04DX003 (ip), vehicle: saline with Tween-80 95 % of control | dose: 20.0 mg/kg/injection, schedule: Q04DX003 (ip), vehicle: saline with Tween-80 97 % of control | dose: 40.0 mg/kg/injection, schedule: Q04DX003 (ip), vehicle: saline with Tween-80 97 % of control

COC(=O)C1CC2C=CC1CC2 (stereo not drawn)
inactive: dose: 100.0 mg/kg/injection, schedule: Q04DX003 (ip), vehicle: saline 97 % of control | dose: 200.0 mg/kg/injection, schedule: Q04DX003 (ip), vehicle: saline 105 % of control | dose: 400.0 mg/kg/injection, schedule: Q04DX003 (ip), vehicle: saline 95 % of control

CO[C@H]1C[C@@H]2CC[C@@H](C)[C@@](O)(O2)C(=O)C(=O)N2CCCC[C@H]2C(=O)O[C@H]([C@H](C)C[C@@H]2CC[C@@H](O)[C@H](OC)C2)CC(=O)[C@H](C)C=C(C)[C@@H](O)[C@@H](OC)C(=O)[C@H](C)C[C@H](C)/C=C/C=C/C=C1C
inactive: dose: 12.5 mg/kg/injection, schedule: Q01DX009 (ip), vehicle: saline with Tween-80 107 % of control | dose: 25.0 mg/kg/injection, schedule: Q01DX009 (ip), vehicle: saline with Tween-80 113 % of control | dose: 50.0 mg/kg/injection, schedule: Q01DX009 (ip), vehicle: saline with Tween-80 114 % of control | [7] 113 % of control | [1] 112 % of control | dose: 200.0 mg/kg/injection, schedule: Q01DX001 (ip), vehicle: saline with Tween-80 111 % of control | [2] 104 % of control | dose: 400.0 mg/kg/injection, schedule: Q01DX001 (ip), vehicle: saline with Tween-80 120 % of control

— PubChem BioAssay AID256 (DTP/NCI, 2004)
